The record followed here is US20250026778A1 (TIUMBIO CO., LTD., priority 2021, published 2025).

Some results are limits rather than exact numbers.

The target in the first assay is T1, his-galectin-3 (Homo sapiens, UniProt P17931).
T1 construct: purchased Abcam
T1 sequence (P17931 whole entry): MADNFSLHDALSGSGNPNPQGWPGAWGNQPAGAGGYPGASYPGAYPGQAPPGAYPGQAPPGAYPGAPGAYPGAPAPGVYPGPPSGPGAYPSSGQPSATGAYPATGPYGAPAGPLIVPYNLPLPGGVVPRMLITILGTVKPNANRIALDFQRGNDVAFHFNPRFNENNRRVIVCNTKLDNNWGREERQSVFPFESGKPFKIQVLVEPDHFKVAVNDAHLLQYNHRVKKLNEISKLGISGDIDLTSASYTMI
In words: TR-FRET assay (in vitro galectin-3 binding inhibitory activity test). Conditions: Table 1; compound at 20 μM; 60 nM his-galectin-3, 15 nM biotin-ASF; read-out: % Inhibitory activity (at 20 μM). The method in brief: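 Compound is premixed with his-galectin-3 (60 nM final), then biotin-ASF (15 nM), Tb anti-His antibody (2 nM) and streptavidin-d2 (20 nM) are added. After at least 3.5 hours at RT in HEPES/NaCl buffer with Tween 20 and BSA, TR-FRET is read at 615/665 nm. DMSO serves as the uninhibited control, ASF omission as background.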
For the molecule `OC[C@H]1O[C@]2(OCC[C@H]2NCc2c(O)ccc(F)c2F)[C@H](O)[C@@H](n2cc(-c3cc(F)c(F)c(F)c3)nn2)[C@H]1O` [Compound A63, (4R,5S,7R,8R,9S,10R)-4-((2,3-difluoro-6-hydroxybenzyl)amino)-7-(hydroxymethyl)-9-(4-(3,4,5-trifluorophenyl)-1H-1,2,3-triazol-1-yl)-1,6-dioxaspiro[4.5]decane-8,10-diol], the inhibition at 20 µM was under 25%.

For `O=C(O[C@@H]1[C@@H](n2cc(-c3cc(F)c(F)c(F)c3)nn2)[C@@H](O)[C@@H](CO)O[C@@]12CCCO2)c1ccccc1Cl` [Compound A70, (5S,7R,8R,9S,10R)-8-hydroxy-7-(hydroxymethyl)-9-(4-(3,4,5-trifluorophenyl)-1H-1,2,3-triazol-1-yl)-1,6-dioxaspiro[4.5]decan-10-yl 2-chlorobenzoate], the inhibition at 20 µM is under 25%.

In the case of `O=C(O[C@@H]1[C@@H](n2cc(-c3cc(F)c(F)c(F)c3)nn2)[C@@H](O)[C@@H](CO)O[C@@]12CCCO2)c1cccc(F)c1F` [Compound A71, (5S,7R,8R,9S,10R)-8-hydroxy-7-(hydroxymethyl)-9-(4-(3,4,5-trifluorophenyl)-1H-1,2,3-triazol-1-yl)-1,6-dioxaspiro[4.5]decan-10-yl 2,3-difluorobenzoate], the inhibition at 20 µM fell in the range of 25 to 50%.

`O=C(O[C@@H]1[C@@H](n2cc(-c3cc(F)c(F)c(F)c3)nn2)[C@@H](O)[C@@H](CO)O[C@@]12CCCO2)c1ccccn1` [Compound A72, (5S,7R,8R,9S,10R)-8-hydroxy-7-(hydroxymethyl)-9-(4-(3,4,5-trifluorophenyl)-1H-1,2,3-triazol-1-yl)-1,6-dioxaspiro[4.5]decan-10-yl picolinate]: the inhibition at 20 µM was 50 to 75%.

Take `O=C(O[C@@H]1[C@@H](n2cc(-c3cc(F)c(F)c(F)c3)nn2)[C@@H](O)[C@@H](CO)O[C@@]12CCCO2)c1cccc(C(F)(F)F)c1` [Compound A73, (5S,7R,8R,9S,10R)-8-hydroxy-7-(hydroxymethyl)-9-(4-(3,4,5-trifluorophenyl)-1H-1,2,3-triazol-1-yl)-1,6-dioxaspiro[4.5]decan-10-yl 3-(trifluoromethyl)benzoate]: the inhibition at 20 µM was under 25%.

Consider `O=P(O)(O)O[C@@H]1[C@@H](n2cc(-c3cc(F)c(F)c(F)c3)nn2)[C@@H](O)[C@@H](CO)O[C@@]12CCCCO2` [Compound A76, (2R,3R,4S,5R,6S)-3-hydroxy-2-(hydroxymethyl)-4-(4-(3,4,5-trifluorophenyl)-1H-1,2,3-triazol-1-yl)-1,7-dioxaspiro[5.5]undecan-5-yl dihydrogen phosphate], for which the inhibition at 20 µM fell in the range of 50 to 75%.

Regarding `O=C(O[C@@H]1[C@@H](n2cc(-c3cc(F)c(F)c(F)c3)nn2)[C@@H](O)[C@@H](CO)O[C@@]12CCCO2)c1ncccc1F` [Compound A77, (5S,7R,8R,9S,10R)-8-hydroxy-7-(hydroxymethyl)-9-(4-(3,4,5-trifluorophenyl)-1H-1,2,3-triazol-1-yl)-1,6-dioxaspiro[4.5]decan-10-yl 3-fluoropicolinate], the inhibition at 20 µM lay in the range of 25 to 50%.

For `O=C(O[C@@H]1[C@@H](n2cc(-c3cc(F)c(F)c(F)c3)nn2)[C@@H](O)[C@@H](CO)O[C@@]12CCCO2)c1ccc(F)cc1F` [Compound A78, (5S,7R,8R,9S,10R)-8-hydroxy-7-(hydroxymethyl)-9-(4-(3,4,5-trifluorophenyl)-1H-1,2,3-triazol-1-yl)-1,6-dioxaspiro[4.5]decan-10-yl 2,4-difluorobenzoate], the inhibition at 20 µM is under 25%.

Take `O=C(O[C@@H]1[C@@H](n2cc(-c3cc(F)c(F)c(F)c3)nn2)[C@@H](O)[C@@H](CO)O[C@@]12CCCO2)c1ccc(F)cc1` [Compound A79, (5S,7R,8R,9S,10R)-8-hydroxy-7-(hydroxymethyl)-9-(4-(3,4,5-trifluorophenyl)-1H-1,2,3-triazol-1-yl)-1,6-dioxaspiro[4.5]decan-10-yl 4-fluorobenzoate]: the inhibition at 20 µM is under 25%.

In the case of `O=C(O[C@@H]1[C@@H](n2cc(-c3cc(F)c(F)c(F)c3)nn2)[C@@H](O)[C@@H](CO)O[C@@]12CCCO2)c1ccncc1` [Compound A80, (5S,7R,8R,9S,10R)-8-hydroxy-7-(hydroxymethyl)-9-(4-(3,4,5-trifluorophenyl)-1H-1,2,3-triazol-1-yl)-1,6-dioxaspiro[4.5]decan-10-yl isonicotinate], the inhibition at 20 µM was in the range of 25 to 50%.

Consider `OC[C@H]1O[C@]2(OCC[C@H]2NCc2cccnc2)[C@H](O)[C@@H](n2cc(-c3cc(F)c(F)c(F)c3)nn2)[C@H]1O` [Compound A85], for which the inhibition at 20 µM is over 75%.

For the molecule `OC[C@H]1O[C@]2(OCC[C@H]2NCc2cccc(Cl)c2)[C@H](O)[C@@H](n2cc(-c3cc(F)c(F)c(F)c3)nn2)[C@H]1O` [Compound A86, (4R,5S,7R,8R,9S,10R)-4-((3-chlorobenzyl)amino)-7-(hydroxymethyl)-9-(4-(3,4,5-trifluorophenyl)-1H-1,2,3-triazol-1-yl)-1,6-dioxaspiro[4.5]decane-8,10-diol], the inhibition at 20 µM is over 75%.

Take `OC[C@H]1O[C@]2(OCC[C@H]2NCc2ccccc2F)[C@H](O)[C@@H](n2cc(-c3cc(F)c(F)c(F)c3)nn2)[C@H]1O` [Compound A87, (4R,5S,7R,8R,9S,10R)-4-((2-fluorobenzyl)amino)-7-(hydroxymethyl)-9-(4-(3,4,5-trifluorophenyl)-1H-1,2,3-triazol-1-yl)-1,6-dioxaspiro[4.5]decane-8,10-diol]: the inhibition at 20 µM fell in the range of 25 to 50%.

For the molecule `OC[C@H]1O[C@@]2(CCCO2)[C@H](OCc2cccc(C(F)(F)F)c2)[C@@H](n2cc(-c3cc(F)c(F)c(F)c3)nn2)[C@H]1O` [Compound A90, (5S,7R,8R,9S,10R)-7-(hydroxymethyl)-10-((3-(trifluoromethyl)benzyl)oxy)-9-(4-(3,4,5-trifluorophenyl)-1H-1,2,3-triazol-1-yl)-1,6-dioxaspiro[4.5]decan-8-ol], the inhibition at 20 µM was under 25%.

The assay is the same for the next values; noted with them: Table 3, found values; compound at 20 μM; 60 nM his-galectin-3, 15 nM biotin-ASF; read-out: % Inhibitory activity (at 20 μM).
For the molecule `OC[C@H]1O[C@]2(OCC[C@H]2NCc2cccc(Cl)c2)[C@H](O)[C@@H](n2cc(-c3cc(F)c(F)c(F)c3)nn2)[C@H]1O` [Compound A86, (4R,5S,7R,8R,9S,10R)-4-((3-chlorobenzyl)amino)-7-(hydroxymethyl)-9-(4-(3,4,5-trifluorophenyl)-1H-1,2,3-triazol-1-yl)-1,6-dioxaspiro[4.5]decane-8,10-diol], the inhibition at 20 µM was determined as 80.3%.

Still in this assay, the particulars now being: read-out: % Inhibitory activity (at 20 μM), Table 1; compound at 20 μM; 60 nM his-galectin-3, 15 nM biotin-ASF.
Turning to `OC[C@H]1O[C@@]2(CCCO2)[C@H](OCc2cccc(Cl)c2)[C@@H](n2cc(-c3cc(F)c(F)c(F)c3)nn2)[C@H]1O` [Compound A64, (5S,7R,8R,9S,10R)-10-((3-chlorobenzyl)oxy)-7-(hydroxymethyl)-9-(4-(3,4,5-trifluorophenyl)-1H-1,2,3-triazol-1-yl)-1,6-dioxaspiro[4.5]decan-8-ol], the inhibition at 20 µM is under 25%.

As for `OC[C@H]1O[C@@]2(CCCO2)[C@H](OCc2cccc(F)c2F)[C@@H](n2cc(-c3cc(F)c(F)c(F)c3)nn2)[C@H]1O` [Compound A65, (5S,7R,8R,9S,10R)-10-((2,3-difluorobenzyl)oxy)-7-(hydroxymethyl)-9-(4-(3,4,5-trifluorophenyl)-1H-1,2,3-triazol-1-yl)-1,6-dioxaspiro[4.5]decan-8-ol], the inhibition at 20 µM was under 25%.

`CC(O[C@@H]1[C@@H](n2cc(-c3cc(F)c(F)c(F)c3)nn2)[C@@H](O)[C@@H](CO)O[C@@]12CCCO2)C(=O)O` (stereo partly drawn) [Compound A66, 2-(((5S,7R,8R,9S,10R)-8-hydroxy-7-(hydroxymethyl)-9-(4-(3,4,5-trifluorophenyl)-1H-1,2,3-triazol-1-yl)-1,6-dioxaspiro[4.5]decan-10-yl)oxy)propanoic acid]: the inhibition at 20 µM was 25 to 50%.

Take `O=C(O[C@@H]1[C@@H](n2cc(-c3cc(F)c(F)c(F)c3)nn2)[C@@H](O)[C@@H](CO)O[C@@]12CCCO2)c1ccccc1F` [Compound A69, (5S,7R,8R,9S,10R)-8-hydroxy-7-(hydroxymethyl)-9-(4-(3,4,5-trifluorophenyl)-1H-1,2,3-triazol-1-yl)-1,6-dioxaspiro[4.5]decan-10-yl 2-fluorobenzoate]: the inhibition at 20 µM fell in the range of 25 to 50%.

As for `C[C@@H](O[C@@H]1[C@@H](n2cc(-c3cc(F)c(F)c(F)c3)nn2)[C@@H](O)[C@@H](CO)O[C@@]12CCCO2)C(=O)O` [Compound A82, (R)-2-(((5S,7R,8R,9S,10R)-8-hydroxy-7-(hydroxymethyl)-9-(4-(3,4,5-trifluorophenyl)-1H-1,2,3-triazol-1-yl)-1,6-dioxaspiro[4.5]decan-10-yl)oxy)propanoic acid], the inhibition at 20 µM was under 25%.

With `C[C@@H](O[C@@H]1[C@@H](n2cc(-c3cc(F)c(F)c(F)c3)nn2)[C@@H](O)[C@@H](CO)O[C@@]12CCCCO2)C(=O)O` [Compound A83, (R)-2-(((2R,3R,4S,5R,6S)-3-hydroxy-2-(hydroxymethyl)-4-(4-(3,4,5-trifluorophenyl)-1H-1,2,3-triazol-1-yl)-1,7-dioxaspiro[5.5]undecan-5-yl)oxy)propanoic acid], the inhibition at 20 µM lay in the range of 25 to 50%.

As for `OC[C@H]1O[C@@]2(CCCO2)[C@H](OCc2cncc(F)c2)[C@@H](n2cc(-c3cc(F)c(F)c(F)c3)nn2)[C@H]1O` [Compound A84, (5S,7R,8R,9S,10R)-10-((5-fluoropyridin-3-yl)methoxy)-7-(hydroxymethyl)-9-(4-(3,4,5-trifluorophenyl)-1H-1,2,3-triazol-1-yl)-1,6-dioxaspiro[4.5]decan-8-ol], the inhibition at 20 µM was under 25%.

`O=C1CCCC2(N1)O[C@H](CO)[C@H](O)[C@H](n1cc(-c3cc(F)c(F)c(F)c3)nn1)[C@H]2O` (stereo partly drawn) [Compound A88, (2R,3R,4S,5R)-3,5-dihydroxy-2-(hydroxymethyl)-4-(4-(3,4,5-trifluorophenyl)-1H-1,2,3-triazol-1-yl)-1-oxa-7-azaspiro[5.5]undecan-8-one]: the inhibition at 20 µM was under 25%.

The same assay, now with this note: read-out: % Inhibitory activity (at 20 μM), Table 3, found values; compound at 20 μM; 60 nM his-galectin-3, 15 nM biotin-ASF.
With `OC[C@H]1O[C@@]2(CCCO2)[C@H](OCc2cccc(F)c2F)[C@@H](n2cc(-c3cc(F)c(F)c(F)c3)nn2)[C@H]1O` [Compound A65, (5S,7R,8R,9S,10R)-10-((2,3-difluorobenzyl)oxy)-7-(hydroxymethyl)-9-(4-(3,4,5-trifluorophenyl)-1H-1,2,3-triazol-1-yl)-1,6-dioxaspiro[4.5]decan-8-ol], the inhibition at 20 µM was found to be 17.3%.
